From paper PMC8398983, “Triarylborane Dyes as a Novel Non-Covalent and Non-Inhibitive Fluorimetric Markers for DPP III Enzyme” (Molecules, 2021)
Numbering of substitutions follows the chain as printed.

How the values were obtained:
Assay in all cases: fluorimetric titration, […] fit
Type in all cases: binding
hDPP III [1] = molecular target: T1, hDPP III (Homo sapiens, UniProt Q9NY33, E451A); settings: read-out: logKs (converted)
T1 construct: gene DPP3; recombinant, C-terminal His-tag, expressed in E. coli from pET21b, Ni-NTA purified
T1 sequence (Q9NY33 2-737 E451A): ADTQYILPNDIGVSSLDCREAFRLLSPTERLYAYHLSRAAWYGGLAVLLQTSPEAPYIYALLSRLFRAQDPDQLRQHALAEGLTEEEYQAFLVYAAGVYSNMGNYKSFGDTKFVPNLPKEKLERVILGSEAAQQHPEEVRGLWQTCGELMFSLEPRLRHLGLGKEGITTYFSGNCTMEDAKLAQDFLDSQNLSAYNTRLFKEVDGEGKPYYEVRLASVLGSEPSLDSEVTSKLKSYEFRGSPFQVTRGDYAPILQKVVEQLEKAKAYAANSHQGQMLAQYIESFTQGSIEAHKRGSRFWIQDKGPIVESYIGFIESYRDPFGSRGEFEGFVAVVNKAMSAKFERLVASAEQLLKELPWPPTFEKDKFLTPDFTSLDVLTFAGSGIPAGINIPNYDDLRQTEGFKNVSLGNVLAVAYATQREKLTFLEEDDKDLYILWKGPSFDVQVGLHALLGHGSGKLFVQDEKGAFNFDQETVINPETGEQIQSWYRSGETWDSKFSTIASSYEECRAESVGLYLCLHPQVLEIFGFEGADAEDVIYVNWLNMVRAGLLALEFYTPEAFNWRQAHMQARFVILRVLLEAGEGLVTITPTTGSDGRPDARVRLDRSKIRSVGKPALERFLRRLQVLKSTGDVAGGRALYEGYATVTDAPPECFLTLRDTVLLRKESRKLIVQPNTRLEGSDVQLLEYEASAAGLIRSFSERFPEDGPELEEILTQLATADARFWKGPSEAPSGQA

[2] = molecular target: T2, BSA (bovine serum albumin) (Bos taurus, UniProt P02769); settings: read-out: logKs (converted)
T2 construct: gene ALB; commercial native protein (Sigma Aldrich), mature serum albumin

hDPP III [3] = molecular target: T3, hDPP III (Homo sapiens, UniProt Q9NY33); settings: TRIS-HCl buffer I = 0.02 M, pH 7.4
T3 construct: gene DPP3; recombinant, C-terminal His-tag, expressed in E. coli from pET21b, Ni-NTA purified
T3 sequence (Q9NY33 2-737): T1 sequence (Q9NY33 2-737 E451A) with A450E

T2 sequence (P02769 25-607): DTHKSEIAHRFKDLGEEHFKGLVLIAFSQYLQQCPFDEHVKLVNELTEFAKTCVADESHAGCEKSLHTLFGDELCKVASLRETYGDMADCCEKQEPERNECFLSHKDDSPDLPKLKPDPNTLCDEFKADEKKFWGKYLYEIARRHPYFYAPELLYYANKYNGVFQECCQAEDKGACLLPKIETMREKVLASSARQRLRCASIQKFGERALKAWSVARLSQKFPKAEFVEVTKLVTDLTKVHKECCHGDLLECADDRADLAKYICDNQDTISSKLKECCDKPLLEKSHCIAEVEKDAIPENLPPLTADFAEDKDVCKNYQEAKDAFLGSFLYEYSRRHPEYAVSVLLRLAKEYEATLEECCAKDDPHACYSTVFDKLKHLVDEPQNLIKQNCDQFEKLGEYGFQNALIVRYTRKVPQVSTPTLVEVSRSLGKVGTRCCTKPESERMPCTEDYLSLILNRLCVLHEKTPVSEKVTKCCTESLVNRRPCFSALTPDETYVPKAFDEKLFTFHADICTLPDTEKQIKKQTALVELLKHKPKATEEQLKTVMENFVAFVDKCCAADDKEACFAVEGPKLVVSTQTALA

SMILES	Kd (hDPP III [1])	Kd [2]	logKs (hDPP III [3]; λexc 342 and 403 nm)	logKs (hDPP III [3]; λexc 400 nm)
Cc1cc(-c2cn(C(CCCCNC(=O)CCCc3ccc4ccc5cccc6ccc3c4c56)C(=O)O)nn2)cc(C)c1B(c1c(C)cc(N(C)C)cc1C)c1c(C)cc(N(C)C)cc1C (stereo not drawn) [compound 2, Triaryl-borane-amino acid-pyrene conjugate 2]	398 nM	398 nM	performed fluorimetric titrations with wild type (wt) hDPP III	
Cc1cc(-c2cn(C(CCCCN)C(=O)O)nn2)cc(C)c1B(c1c(C)cc(N(C)C)cc1C)c1c(C)cc(N(C)C)cc1C (stereo not drawn) [compound 1, Triaryl-borane-amino acid conjugate 1]	251 nM	501 nM		performed fluorimetric titrations with wild type (wt) hDPP III
